Results from US10738056B2 (Aduro BioTech, Inc., priority 2017, dated 2020).

Target: Human cGAS amino acids 155-522 (Homo sapiens (Human), UniProt Q8N884)
Assay: cGAS biochemical activity assay (ATP remaining, Kinase-Glo Max luminescence)
Conditions: human cGAS 155-522, ATP remaining (Kinase-Glo Max); read-out: cGAS IC50

Human cGAS amino acids 155-522, sequence (Q8N884 157-522): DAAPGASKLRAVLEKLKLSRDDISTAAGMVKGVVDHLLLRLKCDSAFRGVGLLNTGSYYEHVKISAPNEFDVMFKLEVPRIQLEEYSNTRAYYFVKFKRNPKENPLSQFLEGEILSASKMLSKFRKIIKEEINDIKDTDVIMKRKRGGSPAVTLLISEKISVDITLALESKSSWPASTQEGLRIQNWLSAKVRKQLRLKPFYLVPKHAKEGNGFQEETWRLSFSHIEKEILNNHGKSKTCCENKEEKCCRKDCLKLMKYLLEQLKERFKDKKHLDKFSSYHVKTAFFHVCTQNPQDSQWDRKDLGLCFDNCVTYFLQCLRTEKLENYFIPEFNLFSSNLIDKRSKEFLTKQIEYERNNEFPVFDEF

Row | IC50 | Compound
1 | 20 to 250 µM | COc1cccc2oc(-c3c(COCC(N)=O)[nH]c4c(-c5ccccc5)c(C(F)(F)F)nn4c3=O)nc12 [Compound C1198, 2-((6-(4-methoxybenzo[d]oxazol-2-yl)-7-oxo-3-phenyl-2-(trifluoromethyl)-4,7-dihydropyrazolo[1,5-a]pyrimidin-5-yl)methoxy)acetamide]
2 | < 20 µM | Cc1[nH]c2c(-c3ccccc3)c(C#N)nn2c(=O)c1-c1nc2ccccc2n1C1CCCCC1 [Compound C1276, 6-(1-cyclohexyl-1H-benzo[d]imidazol-2-yl)-5-methyl-7-oxo-3-phenyl-4,7-dihydropyrazolo[1,5-a]pyrimidine-2-carbonitrile]
3 | 20 to 250 µM | Cc1[nH]c2c(-c3ccccc3)c(C(F)(F)F)nn2c(=O)c1-c1nnc(N2CCOCC2)o1 [Compound D1009, 5-methyl-6-(5-morpholino-1,3,4-oxadiazol-2-yl)-3-phenyl-2-(trifluoromethyl)pyrazolo[1,5-a]pyrimidin-7(4H)-one]
4 | 20 to 250 µM | Cc1nnc(Cc2c(C)[nH]c3c(-c4ccccc4)c(C(F)(F)F)nn3c2=O)o1 [Compound D1032, 5-methyl-6-((5-methyl-1,3,4-oxadiazol-2-yl)methyl)-3-phenyl-2-(trifluoromethyl)pyrazolo[1,5-a]pyrimidin-7(4H)-one]
5 | < 20 µM | Cc1[nH]c2c(-c3ccccc3)c(C#N)nn2c(=O)c1-c1nc2c(OC3CC3)cccc2o1 [Compound C1277, 6-(4-cyclopropoxybenzo[d]oxazol-2-yl)-5-methyl-7-oxo-3-phenyl-4,7-dihydropyrazolo[1,5-a]pyrimidine-2-carbonitrile]
6 | < 20 µM | Cc1[nH]c2c(-c3ccccc3)c(C(F)(F)F)nn2c(=O)c1-c1n[nH]c(=O)o1 [Compound C1247, 5-(5-methyl-7-oxo-3-phenyl-2-(trifluoromethyl)-4,7-dihydropyrazolo[1,5-a]pyrimidin-6-yl)-1,3,4-oxadiazol-2(3H)-one]
7 | 20 to 250 µM | COCC1CCCN1c1nnc(-c2c(C)[nH]c3c(-c4ccccc4)c(C(F)(F)F)nn3c2=O)o1 (centres unmarked) [Compound D1059, 6-(5-(2-(methoxymethyl)pyrrolidin-1-yl)-1,3,4-oxadiazol-2-yl)-5-methyl-3-phenyl-2-(trifluoromethyl)pyrazolo[1,5-a]pyrimidin-7(4H)-one]
8 | < 20 µM | COc1cccc2oc(-c3c(C4CCC(C(=O)O)C4)[nH]c4c(-c5ccccc5)c(C(F)(F)F)nn4c3=O)nc12 (centres unmarked) [Compound C1239, 3-(6-(4-methoxybenzo[d]oxazol-2-yl)-7-oxo-3-phenyl-2-(trifluoromethyl)-4,7-dihydropyrazolo[1,5-a]pyrimidin-5-yl)cyclopentane-1-carboxylic acid]
9 | 20 to 250 µM | Cc1[nH]c2c(-c3ccccc3)c(C(F)(F)F)nn2c(=O)c1-c1nnc(C2CCOC2)o1 (centres unmarked) [Compound D1013, 5-methyl-3-phenyl-6-(5-(tetrahydrofuran-3-yl)-1,3,4-oxadiazol-2-yl)-2-(trifluoromethyl)pyrazolo[1,5-a]pyrimidin-7(4H)-one]
10 | > 250 µM | Cc1[nH]c2c(C3CC3)c(C(F)(F)F)nn2c(=O)c1-c1ccccc1 [Compound C1265, 3-cyclopropyl-5-methyl-6-phenyl-2-(trifluoromethyl)pyrazolo[1,5-a]pyrimidin-7(4H)-one]
11 | 20 to 250 µM | CC(=O)N1CCC(c2nnc(-c3c(C)[nH]c4c(-c5ccccc5)c(C(F)(F)F)nn4c3=O)o2)CC1 [Compound D1054, 6-(5-(1-acetylpiperidin-4-yl)-1,3,4-oxadiazol-2-yl)-5-methyl-3-phenyl-2-(trifluoromethyl)pyrazolo[1,5-a]pyrimidin-7(4H)-one]
12 | > 250 µM | Cc1[nH]c2c(-c3cccnc3)c(C(F)(F)F)nn2c(=O)c1-c1nc2c(o1)CCCC2 [Compound C1036, 5-methyl-3-(pyridin-3-yl)-6-(4,5,6,7-tetrahydrobenzo[d]oxazol-2-yl)-2-(trifluoromethyl)pyrazolo[1,5-a]pyrimidin-7(4H)-one]
13 | 20 to 250 µM | CC(=O)NCCc1c(C)[nH]c2c(-c3ccccc3)c(C(F)(F)F)nn2c1=O [Compound B1013, N-(2-(5-methyl-7-oxo-3-phenyl-2-(trifluoromethyl)-4,7-dihydropyrazolo[1,5-a]pyrimidin-6-yl)ethyl)acetamide]
14 | 20 to 250 µM | Cc1[nH]c2c(-c3ccccc3)c(C(F)(F)F)nn2c(=O)c1CC(=O)Nc1ccncc1 [Compound B1004, 2-(5-methyl-7-oxo-3-phenyl-2-(trifluoromethyl)-4,7-dihydropyrazolo[1,5-a]pyrimidin-6-yl)-N-(pyridin-4-yl)acetamide]
15 | 20 to 250 µM | Cc1[nH]c2c(-c3ccccc3)c(C(F)(F)F)nn2c(=O)c1-c1nnc(N2CCS(=O)(=O)CC2)o1 [Compound D1068, 6-(5-(1,1-dioxidothiomorpholino)-1,3,4-oxadiazol-2-yl)-5-methyl-3-phenyl-2-(trifluoromethyl)pyrazolo[1,5-a]pyrimidin-7(4H)-one]
16 | 20 to 250 µM | COc1cccn2c(CO)c(-c3c(C)[nH]c4c(-c5ccccc5)c(C(F)(F)F)nn4c3=O)nc12 [Compound C1215, 6-(3-(hydroxymethyl)-8-methoxyimidazo[1,2-a]pyridin-2-yl)-5-methyl-3-phenyl-2-(trifluoromethyl)pyrazolo[1,5-a]pyrimidin-7(4H)-one]
17 | 20 to 250 µM | Cc1[nH]c2c(-c3ccccc3)c(C(F)(F)F)nn2c(=O)c1-c1nnc(C2CCNCC2)o1 [Compound D1052, 5-methyl-3-phenyl-6-(5-(piperidin-4-yl)-1,3,4-oxadiazol-2-yl)-2-(trifluoromethyl)pyrazolo[1,5-a]pyrimidin-7(4H)-one]
18 | 20 to 250 µM | Cc1[nH]c2c(-c3ccccc3)c(C(F)(F)F)nn2c(=O)c1-c1cnc2ccccc2c1 [Compound C1007, 5-methyl-3-phenyl-6-(quinolin-3-yl)-2-(trifluoromethyl)pyrazolo[1,5-a]pyrimidin-7(4H)-one]
19 | 20 to 250 µM | COc1cccc2oc(-c3c(C)[nH]c4c(-c5ccccc5)c(C#CC5CC5)nn4c3=O)nc12 [Compound C1228, 2-(cyclopropylethynyl)-6-(4-methoxybenzo[d]oxazol-2-yl)-5-methyl-3-phenylpyrazolo[1,5-a]pyrimidin-7(4H)-one]

The remaining lines, values behind:

Row | Compound | IC50
20 | Cc1[nH]c2c(-c3ccccc3)c(C(F)(F)F)nn2c(=O)c1C(=O)NC1CCCC1 [Compound A1008, N-cyclopentyl-5-methyl-7-oxo-3-phenyl-2-(trifluoromethyl)-4,7-dihydropyrazolo[1,5-a]pyrimidine-6-carboxamide] | 20 to 250 µM
21 | CC(=O)Nc1cccc(NC(=O)c2c(C)[nH]c3c(-c4ccccc4)c(C(F)(F)F)nn3c2=O)c1 [Compound A1039, N-(3-acetamidophenyl)-5-methyl-7-oxo-3-phenyl-2-(trifluoromethyl)-4,7-dihydropyrazolo[1,5-a]pyrimidine-6-carboxamide] | 20 to 250 µM
22 | Cc1[nH]c2c(-c3ccccc3)c(C(F)(F)F)nn2c(=O)c1C(=O)Nc1ccccc1N(C)C [Compound A1053, N-(2-(dimethylamino)phenyl)-5-methyl-7-oxo-3-phenyl-2-(trifluoromethyl)-4,7-dihydropyrazolo[1,5-a]pyrimidine-6-carboxamide] | 20 to 250 µM
23 | CO[C@@H]1CCCCC1c1nnc(-c2c(C)[nH]c3c(-c4ccccc4)c(C(F)(F)F)nn3c2=O)o1 (some centres unmarked) [D1046 Iso-2] | < 20 µM
24 | Cc1[nH]c2c(-c3ccccc3)c(C(F)(F)F)nn2c(=O)c1C(=O)Nc1cccc(OCc2ccccc2)c1 [Compound A1086, N-(3-(benzyloxy)phenyl)-5-methyl-7-oxo-3-phenyl-2-(trifluoromethyl)-4,7-dihydropyrazolo[1,5-a]pyrimidine-6-carboxamide] | < 20 µM
25 | COc1c(Cl)cccc1NC(=O)c1c(C)[nH]c2c(-c3ccccc3)c(C(F)(F)F)nn2c1=O [Compound A1138, N-(3-chloro-2-methoxyphenyl)-5-methyl-7-oxo-3-phenyl-2-(trifluoromethyl)-4,7-dihydropyrazolo[1,5-a]pyrimidine-6-carboxamide] | 20 to 250 µM
26 | Cc1[nH]c2c(-c3ccccc3)c(C(F)(F)F)nn2c(=O)c1C(=O)Nc1nn(C)cc1C#N [Compound A1090, N-(4-cyano-1-methyl-1H-pyrazol-3-yl)-5-methyl-7-oxo-3-phenyl-2-(trifluoromethyl)-4,7-dihydropyrazolo[1,5-a]pyrimidine-6-carboxamide] | < 20 µM
27 | COC(=O)Nc1ccccc1NC(=O)c1c(C)[nH]c2c(-c3ccccc3)c(C(F)(F)F)nn2c1=O [Compound A1038, methyl (2-(5-methyl-7-oxo-3-phenyl-2-(trifluoromethyl)-4,7-dihydropyrazolo[1,5-a]pyrimidine-6-carboxamido)phenyl)carbamate] | 20 to 250 µM
28 | Cc1[nH]c2c(-c3ccccc3)c(C(F)(F)F)nn2c(=O)c1C(=O)Nc1cccc(NS(C)(=O)=O)c1 [Compound A1045, 5-methyl-N-(3-(methylsulfonamido)phenyl)-7-oxo-3-phenyl-2-(trifluoromethyl)-4,7-dihydropyrazolo[1,5-a]pyrimidine-6-carboxamide] | < 20 µM
29 | Cc1[nH]c2c(-c3ccccc3)c(C(F)(F)F)nn2c(=O)c1C(=O)Nc1ccccc1NS(=O)(=O)C1CCCCC1 [Compound A1119, N-(2-(cyclohexanesulfonamido)phenyl)-5-methyl-7-oxo-3-phenyl-2-(trifluoromethyl)-4,7-dihydropyrazolo[1,5-a]pyrimidine-6-carboxamide] | 20 to 250 µM
30 | Cc1[nH]c2c(-c3ccccc3)c(C(F)(F)F)nn2c(=O)c1C(=O)Nc1cnccn1 [Compound A1024, 5-methyl-7-oxo-3-phenyl-N-(pyrazin-2-yl)-2-(trifluoromethyl)-4,7-dihydropyrazolo[1,5-a]pyrimidine-6-carboxamide] | < 20 µM
31 | Cc1[nH]c2c(-c3ccccc3)c(C(F)(F)F)nn2c(=O)c1C(=O)Nc1ccccc1NS(C)(=O)=O [Compound A1022, 5-methyl-N-(2-(methylsulfonamido)phenyl)-7-oxo-3-phenyl-2-(trifluoromethyl)-4,7-dihydropyrazolo[1,5-a]pyrimidine-6-carboxamide] | < 20 µM
32 | CC(=O)N1CCC(NC(=O)c2c(C)[nH]c3c(-c4ccccc4)c(C(F)(F)F)nn3c2=O)CC1 [Compound A1027, N-(1-acetylpiperidin-4-yl)-5-methyl-7-oxo-3-phenyl-2-(trifluoromethyl)-4,7-dihydropyrazolo[1,5-a]pyrimidine-6-carboxamide] | 20 to 250 µM
